Data on 1 substance can be found in patent US20230346969A1, “INTERMEDIATE FOR PREPARING ANTIBODY-DRUG CONJUGATE (ADC), PREPARATION METHOD THEREFOR, AND USE THEREOF” (priority 2020, published 2023).

One data set relates to HT29. Description: Cell viability assay (CCK-8). The data set is classed as cell-based. The conditions noted are these: ADCs; CCK-8, 96 hours; cell '3128' [sic], Colon; read-out: IC50 (95% Cl). The protocol:
(§1) Cell viability was determined using Cell Counting Kit 8 (CCK-8). Cells were seeded into 96-well plates at 3000-10000 cells/well. After incubation overnight, drugs were added at different concentrations. Plates were incubated in a 5% CO2, 37° C. humidified chamber for 96 hours. CCK8 reagent was added thereto and the plates were placed back to the incubator until the absorbance at 450 nm of untreated control cells was greater than 1.0. Growth inhibition was measured as the percent growth relative to untreated cells. Dose response curve was generated from the mean values of two or three tests, and IC50 values were calculated using Prism GraphPad software.
(§2) The anti-tumor efficacy of different payloads on different tumor cell lines was detected by CCK-8, and the results are shown in FIG. 5.

Data set [1] relates to tumor cell lines with different expression levels of Trop-2. Put plainly: Cell viability assay (CCK-8), comparison across the cell panel. The data set is classed as cell-based. The protocol: as §1, §2
In the next data set the test system is SKBR3 cells. Put plainly: Endocytosis and intracellular localization of ADC by confocal microscopy. The class given is cell-based. As to conditions: 5 µg/mL, 37° C., 45 or 90 min. The protocol: SKBR3 cells were incubated with 5 µg/mL of hRS7-VK-PTX or hRS7-VK-SN38 in a 24-well plate (1 × 10^4 cells/well) in a 5% CO2, 37° C. incubator for 45 or 90 min. Cells were washed once with PBS, fixed and permeabilized. After washing, cells were stained with 488 goat anti-human IgG (H&L) or 555 anti-rabbit IgG F(ab′)2 fragment. Nuclear DNA was stained with 4′,6-dimidyl-2-phenylindole (DAPI). Immunofluorescence was recorded with an Olympus BK71 confocal microscope.
SKBR3 cells were incubated with ADC molecules at 37° C. for 45 or 90 min. Unbound ADC was removed by washing cells in a culture medium, then the cells were fixed and permeabilized. The marker proteins LAMP-1, GM130 and clathrin were detected with their respective antibodies and a secondary antibody conjugated to Alex®555 (red). Anti-Trop-2 ADC was detected with DyLight®488-conjugated secondary antibody (green). DAPI was used to stain nuclear DNA (blue).

In the next data set the test system is COLO205 cells. Put plainly: COLO205 mouse transplanted tumor model. The data set is classed as in vivo, BALB/c nu/nu mice. As to conditions: COLO205 xenograft, intraperitoneal, days 7, 11, 15, 19; p<0.001 vs hRS7-VK-SN38. An excerpt:
(§3) Five-week-old female athymic BALB/c nu/nu mice were purchased from Charles River Company (Shanghai, China), and mice were randomly divided into 5-6 mice/group. Animal handling and procedures were approved and performed in accordance with the requirements of the Institutional Animal Care and Use Committee (IACUC) of Shanghai Institute of Materia Medica, Chinese Academy of Sciences. All models were inoculated subcutaneously on the side of mice. BXPC-3, HCC1806 and NCIH1688 cells were established by injecting and homogenizing 5 × 10^6 cells in Matrigel matrix. COLO205 cells were established by injecting and suspending 1 × 10^7 cells in Matrigel matrix. […] The percentage of inhibition was calculated by the following formula: (1-average tumor volume of the treatment group/average tumor volume of the control group)×100%. Toxicity of the different treatment groups was assessed by monitoring weight loss.
Mice inoculated with COLO205 cells (n = 6 per group) were treated with ADC or control drug on days 7, 11, 15, and 19, and tumor volume was measured two or three times a week. Statistical significance between treatment and control groups was assessed using a two-tailed t-test. ***P<0.001, comparing hRS7-VK-PTX with hRS7; p<0.001, comparing hRS7-VK-PTX with hRS7-VK-SN38, data = mean ± SD, the results are shown in FIG. 1c.

A further data set concerns BXPC-3 cells. Put plainly: BXPC-3 mouse transplanted tumor model. The class given is in vivo, BALB/c nu/nu mice.
Text: as §3
Mice inoculated with BXPC-3 cells (n = 5 per group) were treated with ADC or naked antibody on days 5, 13, and 21, and tumors were measured two or three times a week. On day 25, statistical significance between treatment and control groups was assessed using a two-tailed t-test. ***P<0.001, compared with hRS7 treatment group; *P<0.05, comparing hRS7-VK-PTX treatment group with PTX treatment group; compared with hRS7 treatment group, P<0.001, data=mean ± SD, the results are shown in FIG. 7a.

In a further data set the test system is HCC1806 cells. Put plainly: HCC1806 mouse transplanted tumor model. The class given is in vivo, BALB/c nu/nu mice.
Text: as §3
Mice inoculated with HCC1806 cells (n = 6 per group) were treated on days 7, 10 and 14. Tumors were measured two or three times per week. On day 20, statistical significance between treatment and control groups was assessed using a two-tailed t-test. *P <0.05, comparing hRS7-VK-PTX treatment group with hRS7-VK-SN38 treatment group, data = mean ± SD, the results are shown in FIG. 7b.

A further data set has as its system NCIH1688 cells. Description: Transplanted tumor from NCIH1688 cells alone (not expressing Trop-2). The data set is classed as in vivo, BALB/c-nu/nu mice. As to conditions: hRS7-VK-PTX 10 mg/kg, hRS7-VK-MMAE 3 mg/kg. The source says: Five-week-old female athymic BALB/c nu/nu mice were purchased from Charles River Company (Shanghai, China), and mice were randomly divided into 5-6 mice/group. Animal handling and procedures were approved and performed in accordance with the requirements of the Institutional Animal Care and Use Committee (IACUC) of Shanghai Institute of Materia Medica, Chinese Academy of Sciences. All models were inoculated subcutaneously on the side of mice. BXPC-3, HCC1806 and NCIH1688 cells were established by injecting and homogenizing 5 × 10^6 cells in Matrigel matrix. COLO205 cells were established by injecting and suspending 1 × 10^7 cells in Matrigel matrix. After the tumor volume reached about 200 mm^3, the tumor-bearing mice were randomly divided into treatment groups and a control group according to the tumor volume. Each drug was administered intraperitoneally. […] The percentage of inhibition was calculated by the following formula: (1-average tumor volume of the treatment group/average tumor volume of the control group)×100%. Toxicity of the different treatment groups was assessed by monitoring weight loss.
A mixture of Trop-2-positive tumor cells BXPC-3 and Trop-2-negative tumor cells NCIH1688 or NCIH1688 cells alone were inoculated into BALB/c-nu/nu mice (FIG. 1e, right panel), and the “bystander effect” of hRS7-VK-PTX was detected in a mouse transplanted tumor model.

Data set [2] is described as follows: Adverse effects and weight loss of mice treated in the efficacy models. The conditions noted are these: mouse, in vivo. The class given is in vivo, BALB/c nu/nu mice. An excerpt: Five-week-old female athymic BALB/c nu/nu mice were purchased from Charles River Company (Shanghai, China), and mice were randomly divided into 5-6 mice/group. Animal handling and procedures were approved and performed in accordance with the requirements of the Institutional Animal Care and Use Committee (IACUC) of Shanghai Institute of Materia Medica, Chinese Academy of Sciences. All models were inoculated subcutaneously on the side of mice. BXPC-3, HCC1806 and NCIH1688 cells were established by injecting and homogenizing 5 × 10^6 cells in Matrigel matrix. COLO205 cells were established by injecting and suspending 1 × 10^7 cells in Matrigel matrix. After the tumor volume reached about 200 mm^3, the tumor-bearing mice were randomly divided into treatment groups and a control group according to the tumor volume. Each drug was administered intraperitoneally. Mice were injected at doses of 3 or 10 mg/kg (10 mL/kg). Tumor volume was defined as length × ½ × width × width. The percentage of inhibition was calculated by the following formula: (1-average tumor volume of the treatment group/average tumor volume of the control group)×100%. Toxicity of the different treatment groups was assessed by monitoring weight loss.

Data set [3] can be described thus: Dose tolerability, single intravenous dose acute toxicity. The conditions noted are these: BALB/c mice. The data set is classed as in vivo. The protocol:
Dose tolerability assay was performed in BALB/c mice (3 mice per dose). The drug was given in a single intravenous dose. The injection doses of hRS7-VK-PTX were 60, 80 and 100 mg/kg, and the injection doses of hRS7-VK-MMAE were 60 and 80 mg/kg, respectively. Toxicity was assessed by observing mouse behavior, weight loss and survival. The weight change rate (%) was calculated as: (body weight - body weight before treatment)/(body weight before treatment) × 100%.
The safety of relatively high doses of hRS7-VK-PTX in BALB/c mice was studied by an acute toxicity experiment with single intravenous administration in mice.

Consider hRS7-VK-PTX, for which, in the data set with HT29, the IC50 worked out at 3.47 nM. The “efficacy of ADC in tumor cell lines with low expression of Trop-2” value in [1] (COL0205, MDA-MB-231, SK - MES-1, Capan-1, NCIH2452) was “more effective than hRS7-VK-MMAE and hRS7-VK-SN38”. For the same substance, the “inhibitory effect in PTX-resistant tumor cell lines” value in [1] (SKBR3, CFPAC-1, MDA-MB-231 and COLO205) is listed as “good inhibitory effect”. For the same substance, the “internalization and intracellular localization” value with SKBR3 cells was “co-localization of hRS7-VK-PTX molecule with lysosomes and clathrin heavy chain”. Moreover, the “inhibition of transplanted tumor” value in the data set with COLO205 cells was “more effective than hRS7-VK-SN38”; with BXPC-3 cells (BXPC-3 xenograft, intraperitoneal, days 5, 13, 21), “more effective than hRS7-VK-SN38”; with HCC1806 cells (HCC1806 xenograft, intraperitoneal, days 7, 10, 14, P<0.05 vs hRS7-VK-SN38 on day 20), “more effective than hRS7-VK-SN38”. The “inhibition of transplanted tumor compared with PTX” value in the data set on BXPC-3 cells (BxPC-3 model, 3 mg/kg of hRS7-VK-PTX, P = 0.0248) is recorded as “more effective than 10 mg/kg of PTX”. Further, the “tumor inhibitory effect compared with PTX” value with HCC1806 cells (HCC1806 model, 30 mg/kg (1.3 mg/kg PTX equivalent)) is listed as “comparable to that of 10 mg/kg of PTX”. For the same substance, the “killing effect on transplanted tumors not expressing Trop-2” value in the data set with NCIH1688 cells was “had no such effect”. The “adverse effects or weight loss in treated mice” value in [2] is recorded as “did not cause adverse effects or weight loss”. Further, in [3] (single 100 mg/kg intravenous dose), the “toxicity or weight loss compared with placebo” value is “no significant toxicity or weight loss”. Also, in data set [3] (single intravenous dose, highest dose 100 mg/kg), the “maximum tolerated dose (MTD)” value is given as “not reached”.
